These are literature values, as cited in US8283180B2, “Periodic acid-schiff staining with detection in the infrared range” (Amicus Therapeutics, Inc., priority 2007, dated 2012).

The test system of series [1] is Japanese medaka (Oryzias latipes). The note with it: low DCA exposure concentrations; as early as week two of exposure.

For the compound `O=C(O)C(Cl)Cl` [DCA, dichloroacetic acid], the carcinogenicity entry in the series with rats and with mice was “carcinogenic” throughout. The “changes in the liver” value in series [1] was “marked hepatocellular cytoplasmic vacuolation, cytomegaly, karyomegaly, nuclear atypia and multifocal areas of hepatocellular necrosis and loss”.
Take “Myozyme: enzyme replacement therapy with recombinant α-glucosidase, approved for infantile Pompe disease”: in the series on infantile Pompe disease, the left-ventricular mass index entry is recorded as “improved with treatment”. In the series on infantile Pompe disease (unblinded assessment), the “motor function by the Alberta Infant Motor Scale (AIMS)” value is “did not improve with treatment”.
